Test results from patent publication US20240109918A1, “HETEROCYCLIC COMPOUNDS AND USES THEREOF” (Kumquat Biosciences Inc., priority 2022, published 2024).

How the values were obtained:
KRASwt = biological target: T1, KRASwt (Homo sapiens, UniProt P01116); assay: Bio-Biochem-PPI-HTRF Ras-SOS1 interaction assay (KRAS wt); assay type: biochemical; details: 5 nM
T1 construct: made in house; host or cells: E. coli BL21 (DE3)
How it was run: (§1)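 HTRF readout (ex 337 nm; em 620 and 665 nm) after ≥~10 min incubation; IC50 fitted from 665/620 ratio. GST-K-Ras wt or G12D plus anti-GST-Eu(K), His-hSOS1 plus anti-6His-XL665; duplicate dilutions, 10 μM top.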

KRASG12D = biological target: T2, KRASG12D (Homo sapiens, UniProt P01116, G12D); assay: Bio-Biochem-PPI-HTRF Ras-SOS1 interaction assay (KRAS G12D); assay type: biochemical; details: 5 nM
T2 construct: made in house; host or cells: E. coli BL21 (DE3)
T2 sequence (P01116 1-188 isoform P01116-2 G12D): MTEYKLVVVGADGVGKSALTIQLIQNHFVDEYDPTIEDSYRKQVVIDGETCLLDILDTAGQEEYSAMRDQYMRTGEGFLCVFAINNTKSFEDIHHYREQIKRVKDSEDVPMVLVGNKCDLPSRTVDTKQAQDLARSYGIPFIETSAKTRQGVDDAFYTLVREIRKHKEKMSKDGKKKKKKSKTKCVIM
How it was run: as §1

T1 sequence (P01116 1-188 isoform P01116-2): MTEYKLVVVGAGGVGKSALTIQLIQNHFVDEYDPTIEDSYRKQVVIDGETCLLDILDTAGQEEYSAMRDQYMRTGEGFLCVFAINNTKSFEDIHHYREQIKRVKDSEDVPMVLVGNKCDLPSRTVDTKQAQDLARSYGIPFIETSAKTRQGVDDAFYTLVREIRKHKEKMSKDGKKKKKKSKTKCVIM

Row | SMILES | IC50 (KRASwt) [µM] | IC50 (KRASG12D) [µM]
1 | Cn1cc(C(=O)N2CC3(CCCCN(c4nc(OC[C@@]56CCCN5C[C@H](F)C6)nc5c(F)c(-c6ccc(F)c7sc(N)c(C#N)c67)c(Cl)cc45)C3)C2)c(C(F)F)n1 [compound 220, 2-amino-4-(6-chloro-4-(2-(3-(difluoromethyl)-1-methyl-1H-pyrazole-4-carbonyl)-2,6-diazaspiro[3.6]decan-6-yl)-8-fluoro-2-(((2R,7aS)-2-fluorotetrahydro-1H-pyrrolizin-7a(5H)-yl)methoxy)quinazolin-7-yl)-7-fluorobenzo[b]thiophene-3-carbonitrile] | < 5 | < 5
2 | CN1CCC[C@H]1COc1nc(N2CCCC3(CNC3)C2)c2cc(Cl)c(-c3cccc4sc(N)nc34)c(F)c2n1 [compound 172, 4-(6-chloro-8-fluoro-2-(((S)-1-methylpyrrolidin-2-yl)methoxy)-4-(2,6-diazaspiro[3.5]nonan-6-yl)quinazolin-7-yl)benzo[d]thiazol-2-amine] | < 5 | < 5
3 | N#Cc1c(N)sc2c(F)ccc(-c3c(Cl)cc4c(N5CCCCC6(CN(C(=O)[C@@H]7CCCN7)C6)C5)nc(OC[C@@]56CCCN5C[C@H](F)C6)nc4c3F)c12 [compound 296, 4-(4-(2-(L-prolyl)-2,6-diazaspiro[3.6]decan-6-yl)-6-chloro-8-fluoro-2-(((2R,7aS)-2-fluorotetrahydro-1H-pyrrolizin-7a(5H)-yl)methoxy)quinazolin-7-yl)-2-amino-7-fluorobenzo[b]thiophene-3-carbonitrile] | < 5 | < 5
4 | N#Cc1c(N)sc2c(F)ccc(-c3c(Cl)cc4c(N5CCCCC6(CN(C(=O)C7(C#N)CC7)C6)C5)nc(OC[C@@]56CCCN5C[C@H](F)C6)nc4c3F)c12 [compound 242, 2-amino-4-(6-chloro-4-(2-(1-cyanocyclopropane-1-carbonyl)-2,6-diazaspiro[3.6]decan-6-yl)-8-fluoro-2-(((2R,7aS)-2-fluorotetrahydro-1H-pyrrolizin-7a(5H)-yl)methoxy)quinazolin-7-yl)-7-fluorobenzo[b]thiophene-3-carbonitrile] | < 5 | < 5
5 | C#Cc1c(F)ccc2cc(O)cc(-c3ncc4c(N5CCCC6(CN(C(=O)[C@@H]7C[C@H]7C#N)C6)C5)nc(O[C@@H](C)[C@@H]5CCCN5C)nc4c3F)c12 [compound 113, (1R,2R)-2-(6-(7-(8-ethynyl-7-fluoro-3-hydroxynaphthalen-1-yl)-8-fluoro-2-((S)-1-((S)-1-methylpyrrolidin-2-yl)ethoxy)pyrido[4,3-d]pyrimidin-4-yl)-2,6-diazaspiro[3.5]nonane-2-carbonyl)cyclopropane-1-carbonitrile] | < 5 | < 5
6 | N#Cc1c(N)sc2c(F)ccc(-c3c(Cl)cc4c(N5CCCCC6(CN(C(=O)CC7CCC7)C6)C5)nc(OC[C@@]56CCCN5C[C@H](F)C6)nc4c3F)c12 [compound 320, 2-amino-4-(6-chloro-4-(2-(2-cyclobutylacetyl)-2,6-diazaspiro[3.6]decan-6-yl)-8-fluoro-2-(((2R,7aS)-2-fluorotetrahydro-1H-pyrrolizin-7a(5H)-yl)methoxy)quinazolin-7-yl)-7-fluorobenzo[b] thiophene-3-carbonitrile] | < 5 | < 5
7 | Nc1nc2c(-c3c(Cl)cc4c(N5CCOC6(C5)CN(S(=O)(=O)F)C6)nc(OC[C@@]56CCCN5C[C@H](F)C6)nc4c3F)ccc(F)c2s1 [compound 179, 8-(7-(2-amino-7-fluorobenzo[d]thiazol-4-yl)-6-chloro-8-fluoro-2-(((2R,7aS)-2-fluorotetrahydro-1H-pyrrolizin-7a(5H)-yl)methoxy)quinazolin-4-yl)-5-oxa-2,8-diazaspiro[3.5]nonane-2-sulfonyl fluoride] | < 5 | ≥ 5
8 | C[C@H]1CN(C(=O)N2CC3(CCCCN(c4nc(OC[C@@]56CCCN5C[C@H](F)C6)nc5c(F)c(-c6ccc(F)c7sc(N)c(C#N)c67)c(Cl)cc45)C3)C2)CCO1 [compound 285, 2-amino-4-(6-chloro-8-fluoro-2-(((2R,7aS)-2-fluorotetrahydro-1H-pyrrolizin-7a(5H)-yl)methoxy)-4-(2-((S)-2-methylmorpholine-4-carbonyl)-2,6-diazaspiro[3.6]decan-6-yl)quinazolin-7-yl)-7-fluorobenzo[b]thiophene-3-carbonitrile] | < 5 | < 5
9 | CN1CCC[C@H]1COc1nc2c(c(N3CCCCC4(CN(C(=O)C5CC5(F)F)C4)C3)n1)CCN(c1cccc3cccc(Cl)c13)C2 (stereo partly drawn) [compound 236, (6-(7-(8-chloronaphthalen-1-yl)-2-(((S)-1-methylpyrrolidin-2-yl)methoxy)-5,6,7,8-tetrahydropyrido[3,4-d]pyrimidin-4-yl)-2,6-diazaspiro[3.6]decan-2-yl)(2,2-difluorocyclopropyl)methanone] | ≥ 5 | ≥ 5
10 | N#Cc1c(N)sc2c(F)ccc(-c3c(Cl)cc4c(N5CCCCC6(CN(C(=O)CN7CCOCC7)C6)C5)nc(OC[C@@]56CCCN5C[C@H](F)C6)nc4c3F)c12 [compound 335, 2-amino-4-(6-chloro-8-fluoro-2-(((2R,7aS)-2-fluorotetrahydro-1H-pyrrolizin-7a(5H)-yl)methoxy)-4-(2-(2-morpholinoacetyl)-2,6-diazaspiro[3.6]decan-6-yl)quinazolin-7-yl)-7-fluorobenzo[b]thiophene-3-carbonitrile] | < 5 | < 5
11 | N#Cc1c(N)sc2c(F)ccc(-c3c(Cl)cc4c(N5CCCCC6(CN(C(=O)[C@@H]7C[C@H]7C#N)C6)C5)nc(OC[C@@]56CCCN5C[C@H](F)C6)nc4c3F)c12 [compound 263, 2-amino-4-(6-chloro-4-(2-((1R,2R)-2-cyanocyclopropane-1-carbonyl)-2,6-diazaspiro[3.6]decan-6-yl)-8-fluoro-2-(((2R,7aS)-2-fluorotetrahydro-1H-pyrrolizin-7a(5H)-yl)methoxy)quinazolin-7-yl)-7-fluorobenzo[b]thiophene-3-carbonitrile] | < 5 | < 5
12 | CC(C)(C(=O)N1CC2(CCCCN(c3nc(OC[C@@]45CCCN4C[C@H](F)C5)nc4c(F)c(-c5ccc(F)c6sc(N)c(C#N)c56)c(Cl)cc34)C2)C1)N1CCOCC1 [compound 266, 2-amino-4-(6-chloro-8-fluoro-2-(((2R,7aS)-2-fluorotetrahydro-1H-pyrrolizin-7a(5H)-yl)methoxy)-4-(2-(2-methyl-2-morpholinopropanoyl)-2,6-diazaspiro[3.6]decan-6-yl)quinazolin-7-yl)-7-fluorobenzo[b]thiophene-3-carbonitrile] | < 5 | < 5

The next lines start with the values.

Row | IC50 (KRASwt) [µM] | IC50 (KRASG12D) [µM] | SMILES
13 | < 5 | < 5 | COCC(=O)N1CC2(CCCN(c3nc(O[C@@H](C)[C@@H]4CCCN4C)nc4c(F)c(-c5ccc(F)c6sc(N)c(C#N)c56)c(Cl)cc34)C2)C1 [compound 138, 2-amino-4-(6-chloro-8-fluoro-4-(2-(2-methoxyacetyl)-2,6-diazaspiro[3.5]nonan-6-yl)-2-((S)-1-((S)-1-methylpyrrolidin-2-yl)ethoxy)quinazolin-7-yl)-7-fluorobenzo[b]thiophene-3-carbonitrile]
14 | < 5 | < 5 | N#Cc1c(N)sc2c(F)ccc(-c3c(Cl)cc4c(N5CCCCC6(CN(C(=O)C(F)(F)F)C6)C5)nc(OC[C@@]56CCCN5C[C@H](F)C6)nc4c3F)c12 [compound 206, 2-amino-4-(6-chloro-8-fluoro-2-(((2R,7aS)-2-fluorotetrahydro-1H-pyrrolizin-7a(5H)-yl)methoxy)-4-(2-(2,2,2-trifluoroacetyl)-2,6-diazaspiro[3.6]decan-6-yl)quinazolin-7-yl)-7-fluorobenzo[b]thiophene-3-carbonitrile]
15 | < 5 | < 5 | N#CCC1(C(=O)N2CC3(CCCCN(c4nc(OC[C@@]56CCCN5C[C@H](F)C6)nc5c(F)c(-c6ccc(F)c7sc(N)c(C#N)c67)c(Cl)cc45)C3)C2)CCC1 [compound 216, 2-amino-4-(6-chloro-4-(2-(1-(cyanomethyl)cyclobutane-1-carbonyl)-2,6-diazaspiro[3.6]decan-6-yl)-8-fluoro-2-(((2R,7aS)-2-fluorotetrahydro-1H-pyrrolizin-7a(5H)-yl)methoxy)quinazolin-7-yl)-7-fluorobenzo[b]thiophene-3-carbonitrile]
16 | < 5 | < 5 | N#Cc1c(N)sc2c(F)ccc(-c3c(Cl)cc4c(N5CCC6(CC5)CN(C(=O)C5CC5(F)F)CCO6)nc(OC[C@@]56CCCN5C[C@H](F)C6)nc4c3F)c12 (stereo partly drawn) [compound 171, 2-amino-4-(6-chloro-4-(4-(2,2-difluorocyclopropane-1-carbonyl)-1-oxa-4,9-diazaspiro[5.5]undecan-9-yl)-8-fluoro-2-(((2R,7aS)-2-fluorotetrahydro-1H-pyrrolizin-7a(5H)-yl)methoxy)quinazolin-7-yl)-7-fluorobenzo[b]thiophene-3-carbonitrile]
17 | < 5 | < 5 | N#Cc1c(N)sc2c(F)ccc(-c3c(Cl)cc4c(N5CCCC6(CNC6)C5)nc(OC[C@@]56CCCN5C[C@H](F)C6)nc4c3F)c12 [compound 147, 2-amino-4-(6-chloro-8-fluoro-2-(((2R,7aS)-2-fluorotetrahydro-1H-pyrrolizin-7a(5H)-yl)methoxy)-4-(2,6-diazaspiro[3.5]nonan-6-yl)quinazolin-7-yl)-7-fluorobenzo[b]thiophene-3-carbonitrile]
18 | < 5 | < 5 | N#Cc1c(N)sc2c(F)ccc(-c3c(Cl)cc4c(N5CCCCC6(CN(C(=O)N7CCC(F)(F)C7)C6)C5)nc(OC[C@@]56CCCN5C[C@H](F)C6)nc4c3F)c12 [compound 292, 2-amino-4-(6-chloro-4-(2-(3,3-difluoropyrrolidine-1-carbonyl)-2,6-diazaspiro[3.6]decan-6-yl)-8-fluoro-2-(((2R,7aS)-2-fluorotetrahydro-1H-pyrrolizin-7a(5H)-yl)methoxy)quinazolin-7-yl)-7-fluorobenzo[b]thiophene-3-carbonitrile]
